Test results reported in US20210040073A1, “AZABICYCLO-SUBSTITUTED TRIAZOLE DERIVATIVE, PREPARATION METHOD THEREOF, AND APPLICATION OF SAME IN MEDICINE” (Jiangsu Hengrui Medicine Co., Ltd., priority 2016, published 2021).

What was measured:
human OTR = molecular target: T1, human OTR (Homo sapiens, UniProt P30559); test: Inhibition activity on human OTR (Fluo-4 calcium assay, HEK293/human OTR stably transfected cells, oxytocin 3 nM); type: cell-based; settings: calcium signal
T1 construct: expressed in transfected cells
T1 sequence (P30559 1-389): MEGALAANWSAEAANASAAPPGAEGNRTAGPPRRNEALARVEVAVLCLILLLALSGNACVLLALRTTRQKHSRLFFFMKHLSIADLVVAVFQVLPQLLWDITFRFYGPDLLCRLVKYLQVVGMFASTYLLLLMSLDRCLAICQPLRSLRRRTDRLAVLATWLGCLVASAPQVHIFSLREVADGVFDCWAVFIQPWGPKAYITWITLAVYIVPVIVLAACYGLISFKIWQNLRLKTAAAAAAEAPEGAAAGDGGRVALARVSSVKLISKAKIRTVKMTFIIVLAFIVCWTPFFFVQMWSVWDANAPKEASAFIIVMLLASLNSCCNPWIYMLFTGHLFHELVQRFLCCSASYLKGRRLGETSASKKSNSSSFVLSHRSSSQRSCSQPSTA
Procedure: The inhibition effect of the compounds of the present invention on the activity of human OTR protein expressed in HEK293/human OTR stably transfected cells was determined by the following experimental method:
The pcDNA3.1-hOTR plasmid was transferred into HEK293 cells with the Lipofectamine® 3000 transfection reagent; G418 was added on the next day to screen, and monoclonal cell lines were selected.
(§1) HEK293/human OTR stably transfected cells were inoculated in a 96-well plate with an inoculation density of 25,000 cells/well one day in advance. On the next day, a loading buffer containing Fluo-4 dye was formulated using the reagents in the Fluo-4 NW calcium assay kit, and the culture medium was then removed; 100 μl of the loading buffer containing Fluo-4 dye were added to each well, and the plate was incubated at 37° C. for 30 minutes. After that, the plate was moved to room temperature and equilibrated for 10 minutes. The compounds were formulated into concentration gradients of 10^6, 10^5, 10^4, 10^3, 10^2 and 10^1 nM. 1 μl of the compounds in each concentration was added to each well, and the plate was incubated at room temperature for 10 minutes. 50 μl of oxytocin polypeptide (3 nM) were automatically added by the machine, and the values were immediately detected at 494/516 nM by the flexstation 3 microplate reader. IC50 values of the compounds were calculated by Graphpad prism software using fluorescence signals corresponding to different concentrations.
The inhibition activity of the compounds of the present invention on human OTR was determined by the above test, and the obtained IC50 values are shown in Table 1.

human V1bR = molecular target: T2, human V1bR (Homo sapiens, UniProt P47901); test: Inhibition activity on human V1bR (Fluo-4 calcium assay, HEK293/human V1bR pool cells, vasopressin 3 nM); type: cell-based; settings: calcium signal
T2 construct: expressed in transfected cells; host or cells: HEK293 (G418-selected pool)
T2 sequence (P47901 1-424): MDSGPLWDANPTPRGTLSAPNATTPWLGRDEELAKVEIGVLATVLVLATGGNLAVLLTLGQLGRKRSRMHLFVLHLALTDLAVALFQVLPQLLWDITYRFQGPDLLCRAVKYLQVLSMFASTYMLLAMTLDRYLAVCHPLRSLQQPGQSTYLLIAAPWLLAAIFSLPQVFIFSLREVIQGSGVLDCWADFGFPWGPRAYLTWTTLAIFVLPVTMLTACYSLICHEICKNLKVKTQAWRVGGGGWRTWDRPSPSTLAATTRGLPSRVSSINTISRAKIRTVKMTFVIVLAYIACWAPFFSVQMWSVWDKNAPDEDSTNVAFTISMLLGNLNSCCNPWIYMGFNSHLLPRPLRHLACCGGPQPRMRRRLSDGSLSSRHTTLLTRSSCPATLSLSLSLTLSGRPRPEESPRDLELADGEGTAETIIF
Procedure: The inhibition effect of the compounds of the present invention on the activity of human V1bR protein expressed in HEK293/human V1bR cells was determined by the following experimental method:
The pcDNA3.1-V1bR plasmid was transferred into HEK293 cells with the Lipofectamine® 3000 transfection reagent; G418 was added on the next day, and the HEK293/human V1bR pool cell lines were obtained.
as §1, with “V1bR pool” for “OTR stably transfected”, “50 μl of oxytocin polypeptide (3 nM) were automatically added by the machine, and the values were immediately detected at 494/516 nM by the flexstation 3 microplate reader.” left out

Structure (SMILES) | IC50 (human OTR) [µM] | IC50 (human V1bR) [µM]
COc1ccc(-n2c(COCCF)nnc2N2C[C@@H]3C[C@]3(c3ccc(F)cc3Cl)C2)cn1 [Example 1, (1S,5R)-1-(2-Chloro-4-fluorophenyl)-3-(5-((2-fluoroethoxy)methyl)-4-(6-methoxypyridin-3-yl)-4H-1,2,4-triazol-3-yl)-3-azabicyclo[3.1.0]hexane] | 0.044 | 24.5
COCc1nnc(N2C[C@@H]3C[C@]3(c3cccc(F)c3Cl)C2)n1-c1ccc(OC)nc1 [Example 4, (1S,5R)-1-(2-Chloro-3-fluorophenyl)-3-(5-(methoxymethyl)-4-(6-methoxypyridin-3-yl)-4H-1,2,4-triazol-3-yl)-3-azabicyclo[3.1.0]hexane] | 0.029 | 59.4
CCOCc1nnc(N2C[C@@H]3C[C@]3(c3ccc(F)cc3Cl)C2)n1-c1ccc(OC)nc1 [Example 6, (1S,5R)-1-(2-Chloro-4-fluorophenyl)-3-(5-(ethoxymethyl)-4-(6-methoxypyridin-3-yl)-4H-1,2,4-triazol-3-yl)-3-azabicyclo[3.1.0]hexane] | 0.0043 | 27.9
COCc1nnc(N2C[C@@H]3C[C@]3(c3ccc(F)cc3Cl)C2)n1-c1ccc(OC)nc1 [Example 9, (1S,5R)-1-(2-Chloro-4-fluorophenyl)-3-(5-(methoxymethyl)-4-(6-methoxypyridin-3-yl)-4H-1,2,4-triazol-3-yl)-3-azabicyclo[3.1.0]hexane] | 0.014 | 37.6
COc1ccc(-n2c(N3C[C@@H]4C[C@]4(c4ccc(F)cc4Cl)C3)nnc2C(F)(F)F)cn1 [Example 12, (1S,5R)-1-(2-Chloro-4-fluorophenyl)-3-(4-(6-methoxypyridin-3-yl)-5-(trifluoromethyl)-4H-1,2,4-triazol-3-yl)-3-azabicyclo[3.1.0]hexane] | 0.03 | 11.7
